Measurements from patent US9751854B2 (Millennium Pharmaceuticals, Inc., priority 2014, dated 2017).

Target: human VPS34 (Homo sapiens (Human), UniProt Q8NEB9)
Assay: Human VPS34 enzyme assay (Adapta TR-FRET ADP detection)
Format: biochemical
Design: Percent Inhibition: dose or concentration left out as unconfirmed
Details: not given

human VPS34, sequence (Q8NEB9 whole entry): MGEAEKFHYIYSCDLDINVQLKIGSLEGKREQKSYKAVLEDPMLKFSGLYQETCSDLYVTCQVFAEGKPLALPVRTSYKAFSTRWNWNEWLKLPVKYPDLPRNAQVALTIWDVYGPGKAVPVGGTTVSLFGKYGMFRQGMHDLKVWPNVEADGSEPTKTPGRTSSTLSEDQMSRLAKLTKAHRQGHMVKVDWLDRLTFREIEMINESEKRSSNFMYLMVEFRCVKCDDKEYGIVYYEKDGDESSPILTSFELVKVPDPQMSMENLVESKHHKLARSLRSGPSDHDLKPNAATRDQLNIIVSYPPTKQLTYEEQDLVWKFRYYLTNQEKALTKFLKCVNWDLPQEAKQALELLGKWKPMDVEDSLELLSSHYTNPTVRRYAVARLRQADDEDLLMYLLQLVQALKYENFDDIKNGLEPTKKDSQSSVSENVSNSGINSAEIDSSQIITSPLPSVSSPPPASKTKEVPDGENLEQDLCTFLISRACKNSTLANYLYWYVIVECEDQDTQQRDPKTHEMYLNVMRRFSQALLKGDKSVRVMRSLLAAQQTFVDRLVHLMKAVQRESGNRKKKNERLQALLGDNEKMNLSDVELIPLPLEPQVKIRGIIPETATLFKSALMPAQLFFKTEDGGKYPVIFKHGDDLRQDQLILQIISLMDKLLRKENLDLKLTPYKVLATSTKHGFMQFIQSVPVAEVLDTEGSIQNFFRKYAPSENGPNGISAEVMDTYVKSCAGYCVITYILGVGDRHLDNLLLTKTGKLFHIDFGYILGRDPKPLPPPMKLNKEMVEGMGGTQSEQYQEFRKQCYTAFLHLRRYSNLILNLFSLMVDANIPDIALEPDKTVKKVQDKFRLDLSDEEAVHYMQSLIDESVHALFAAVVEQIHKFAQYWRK

Structure (SMILES) | Percent Inhibition
CC(=O)Nc1cc(-c2cnc(C)c(NS(=O)(=O)c3cccc(Cl)c3Cl)c2)ccn1 [Compound I-342, N-(5-{[(2,3-dichlorophenyl)sulfonyl]amino}-6-methyl-3,4′-bipyridin-2′-yl)acetamide] | >99%
CC(=O)Nc1cc(-c2ccnc(Nc3ccnc(C4CC4)n3)c2)cn2nccc12 [Compound I-371, N-(6-{2-[(2-cyclopropylpyrimidin-4-yl)amino]pyridin-4-yl}pyrazolo[1,5-a]pyridin-4-yl)acetamide] | >99%
CC(=O)Nc1cc(-c2cnc(Cl)c(NS(=O)(=O)N(C)C)c2)ccn1 [Compound I-372, N-{6-chloro-5-[(dimethylsulfamoyl)amino]-3,4′-bipyridin-2′-yl}acetamide] | >99%

Same assay, conditions: IC50 range class

Structure (SMILES) | IC50
Cc1nccc(Nc2cc(-c3cncc(C(C)Oc4ccccc4Cl)c3)ccn2)n1 (stereo not drawn) [Compound I-336, 5-[1-(2-chlorophenoxy)ethyl]-N-(2-methylpyrimidin-4-yl)-3,4′-bipyridin-2′-amine] | 10 to 50 nM
CC(=O)Nc1cc(-c2cnc(N)c(N3CCCC3=O)c2)ccn1 [Compound I-337, N-[6-amino-5-(2-oxopyrrolidin-1-yl)-3,4′-bipyridin-2′-yl]acetamide] | > 100 nM
CC(=O)Nc1cc(-c2cncc(S(=O)(=O)NC3CC3)c2)ccn1 [Compound I-338] | 10 to 50 nM
CC(=O)Nc1cc(-c2cnc(C)c(NS(=O)(=O)c3cccc(C)c3F)c2)ccn1 [Compound I-339, N-(5-{[(2-fluoro-3-methylphenyl)sulfonyl]amino}-6-methyl-3,4′-bipyridin-2′-yl)acetamide] | 10 to 50 nM
CC(=O)Nc1cc(-c2cc(NS(=O)(=O)c3ccc(F)cc3F)c3ncnn3c2)ccn1 [Compound I-340, N-[4-(8-{[(2,4-difluorophenyl)sulfonyl]amino}[1,2,4]triazolo[1,5-a]pyridin-6-yl)pyridin-2-yl]acetamide] | 10 to 50 nM
CC(=O)Nc1cc(-c2cnc(C)c(NS(=O)(=O)N3CCCCCC3)c2)ccn1 [Compound I-341] | 10 to 50 nM
CC(=O)Nc1cc(-c2cnc(C)c(NS(=O)(=O)c3cccc(Cl)c3Cl)c2)ccn1 [Compound I-342, N-(5-{[(2,3-dichlorophenyl)sulfonyl]amino}-6-methyl-3,4′-bipyridin-2′-yl)acetamide] | < 10 nM
CC(=O)Nc1cc(-c2cnc(C)c(N3CCCN(C)S3(=O)=O)c2)ccn1 [Compound I-343] | 10 to 50 nM
COc1ncc(-c2ccnc(NC(C)=O)c2)cc1S(=O)(=O)Nc1ccc(Cl)cc1Cl [Compound I-344] | 10 to 50 nM
Cc1nccc(Nc2cc(-c3cnc(C)c(C(=O)N(C)c4ccc(F)cc4F)c3)ccn2)n1 [Compound I-346, N-(2,4-difluorophenyl)-N,6-dimethyl-2′-[(2-methylpyrimidin-4-yl)amino]-3,4′-bipyridine-5-carboxamide] | 10 to 50 nM
COc1ncc(-c2ccnc(NC(C)=O)c2)cc1NC(=O)c1ccc(F)cc1F [Compound I-347, N-(2′-acetamido-6-methoxy-3,4′-bipyridin-5-yl)-2,4-difluorobenzamide] | > 100 nM
CC(=O)Nc1cc(-c2cncc(NS(=O)(=O)N(C)C)c2)ccn1 [Compound I-348, N-{5-[(dimethylsulfamoyl)amino]-3,4′-bipyridin-2′-yl}acetamide] | 10 to 50 nM
Cc1nccc(Nc2cc(-c3cncc(C(C)OCc4ccccn4)c3)ccn2)n1 (stereo not drawn) [Compound I-349, N-(2-methylpyrimidin-4-yl)-5-[1-(pyridin-2-ylmethoxy)ethyl]-3,4′-bipyridin-2′-amine] | 10 to 50 nM
CCCCN(CCCC)S(=O)(=O)Nc1cc(-c2ccnc(NC(C)=O)c2)cnc1C [Compound I-350, N-{5-[(dibutylsulfamoyl)amino]-6-methyl-3,4′-bipyridin-2′-yl}acetamide] | < 10 nM
CC(=O)Nc1cc(-c2cnc(C)c(N3CCNS3(=O)=O)c2)ccn1 [Compound I-352, N-[5-(1,1-dioxido-1,2,5-thiadiazolidin-2-yl)-6-methyl-3,4′-bipyridin-2′-yl]acetamide] | 50 to 100 nM
CC(=O)Nc1cc(-c2cnc(C)c(S(=O)(=O)Nc3ccc(F)cc3F)c2)ccn1 [Compound I-353, N-(5-(N-(2,4-difluorophenyl)sulfamoyl)-6-methyl-[3,4′-bipyridin]-2′-yl)acetamide] | 10 to 50 nM
CC(=O)Nc1cc(-c2cnc(Cl)c(NS(=O)(=O)c3c(Cl)cccc3Cl)c2C)ccn1 [Compound I-354, N-(6-chloro-5-{[(2,6-dichlorophenyl)sulfonyl]amino}-4-methyl-3,4′-bipyridin-2′-yl)acetamide] | 10 to 50 nM
Cc1c(-c2ccnc(Nc3ccnc(C4CC4)n3)c2)cnc(Cl)c1N [Compound I-355, 6-chloro-N-2-′-(2-cyclopropylpyrimidin-4-yl)-4-methyl-3,4′-bipyridine-2′,5-diamine] | 10 to 50 nM
CC(=O)Nc1cc(-c2cnc(C)c(NS(=O)(=O)c3ccc(C#N)cc3F)c2)ccn1 [Compound I-356, N-(5-{[(4-cyano-2-fluorophenyl)sulfonyl]amino}-6-methyl-3,4′-bipyridin-2′-yl)acetamide] | < 10 nM
CC(=O)Nc1cc(-c2cnc(C)c(N3CC(NCc4ccccc4)CS3(=O)=O)c2)ccn1 (stereo not drawn) [Compound I-357, N-{5-[4-(benzylamino)-1,1-dioxidoisothiazolidin-2-yl]-6-methyl-3,4′-bipyridin-2′-yl}acetamide] | 10 to 50 nM
COc1ncc(-c2ccnc(NC(C)=O)c2)cc1S(=O)(=O)Nc1cc(F)ccc1F [Compound I-358, N-{5-[(2,5-difluorophenyl)sulfamoyl]-6-methoxy-3,4′-bipyridin-2′-yl}acetamide] | 10 to 50 nM

Structure (SMILES) | IC50
CC(=O)Nc1cc(-c2cnc(C)c(OS(=O)(=O)N(C)C)c2)ccn1 [Compound I-359, 2′-acetamido-6-methyl-3,4′-bipyridin-5-yl dimethylsulfamate] | 10 to 50 nM
Cc1c(-c2ccnc(Nc3ccnc(C4CC4)n3)c2)cnc(Cl)c1C(=O)N1CCC1 [Compound I-361, azetidin-1-yl(6-chloro-2′-((2-cyclopropylpyrimidin-4-yl)amino)-4-methyl-[3,4′-bipyridin]-5-yl)methanone] | 10 to 50 nM
CC(=O)Nc1cc(-c2cnc(Cl)c(NS(=O)(=O)c3ccc(C#N)cc3Cl)c2C)ccn1 [Compound I-362, N-(6-chloro-5-{[(2-chloro-4-cyanophenyl)sulfonyl]amino}-4-methyl-3,4′-bipyridin-2′-yl)acetamide] | 10 to 50 nM
Cc1nccc(Nc2cc(-c3cnc(C)c(OCc4ccccc4)c3)ccn2)n1 [Compound I-363, 5-(benzyloxy)-6-methyl-N-(2-methylpyrimidin-4-yl)-3,4′-bipyridin-2′-amine] | > 100 nM
CCOC(=O)Nc1cc(-c2cnc(C)c(NS(=O)(=O)N(C)C)c2)ccn1 [Compound I-364, ethyl {5-[(dimethylsulfamoyl)amino]-6-methyl-3,4′-bipyridin-2′-yl}carbamate] | 10 to 50 nM
CC(=O)Nc1cc(-c2cncc(S(=O)(=O)N(C)c3ccccc3)c2)ccn1 [Compound I-365, N-{5-[methyl(phenyl)sulfamoyl]-3,4′-bipyridin-2′-yl}acetamide] | 10 to 50 nM
CC(=O)Nc1cc(-c2cnc(Cl)c(S(=O)(=O)NC34CC(C3)C4)c2)ccn1 [Compound I-366, N-[5-(bicyclo[1.1.1]pent-1-ylsulfamoyl)-6-chloro-3,4′-bipyridin-2′-yl]acetamide] | 10 to 50 nM
CCNC(=O)Nc1cc(-c2ccnc(Nc3ccnc(C)n3)c2)cnc1C [Compound I-367, 1-ethyl-3-{6-methyl-2′-[(2-methylpyrimidin-4-yl)amino]-3,4′-bipyridin-5-yl}urea] | 50 to 100 nM
Cc1ncc(-c2ccnc(Nc3ccnc(C4CC4)n3)c2)cc1NC(=O)N1CC(F)(F)C1 [Compound I-368, N-(2′-((2-cyclopropylpyrimidin-4-yl)amino)-6-methyl-[3,4′-bipyridin]-5-yl)-3,3-difluoroazetidine-1-carboxamide] | 10 to 50 nM
Cc1c(-c2ccnc(Nc3ccnc(C4CC4)n3)c2)cnc(Cl)c1C(=O)O [Compound I-369, 6-chloro-2′-((2-cyclopropylpyrimidin-4-yl)amino)-4-methyl-[3,4′-bipyridine]-5-carboxylic acid] | 10 to 50 nM
CCN(CC)S(=O)(=O)c1cc(-c2ccnc(NC(C)=O)c2)cnc1C [Compound I-370, N-[5-(diethylsulfamoyl)-6-methyl-3,4′-bipyridin-2′-yl]acetamide] | 10 to 50 nM
CC(=O)Nc1cc(-c2ccnc(Nc3ccnc(C4CC4)n3)c2)cn2nccc12 [Compound I-371, N-(6-{2-[(2-cyclopropylpyrimidin-4-yl)amino]pyridin-4-yl}pyrazolo[1,5-a]pyridin-4-yl)acetamide] | < 10 nM
CC(=O)Nc1cc(-c2cnc(Cl)c(NS(=O)(=O)N(C)C)c2)ccn1 [Compound I-372, N-{6-chloro-5-[(dimethylsulfamoyl)amino]-3,4′-bipyridin-2′-yl}acetamide] | < 10 nM
CCCCS(=O)(=O)Nc1cc(-c2ccnc(NC(C)=O)c2)cnc1C [Compound I-373, N-{5-[(butylsulfonyl)amino]-6-methyl-3,4′-bipyridin-2′-yl}acetamide] | 10 to 50 nM
CC(=O)Nc1cc(-c2cnc(C)c(NS(=O)(=O)N3CCC(F)(F)CC3)c2)ccn1 [Compound I-374, N-(5-{[(4,4-difluoropiperidin-1-yl)sulfonyl]amino}-6-methyl-3,4′-bipyridin-2′-yl)acetamide] | 10 to 50 nM
COc1nc(C)nc(Nc2cc(-c3cnc(C)c(NS(=O)(=O)c4ccc(F)cc4F)c3)ccn2)n1 [Compound I-375, 2,4-difluoro-N-{2′-[(4-methoxy-6-methyl-1,3,5-triazin-2-yl)amino]-6-methyl-3,4′-bipyridin-5-yl}benzenesulfonamide] | < 10 nM
CC(=O)Nc1cc(-c2cnc3c(c2)S(=O)(=O)N(C24CC(C2)C4)CCO3)ccn1 [Compound I-376, N-{4-[2-(bicyclo[1.1.1]pent-1-yl)-1,1-dioxido-3,4-dihydro-2H-pyrido[2,3-b][1,4,5]oxathiazepin-8-yl]pyridin-2-yl}acetamide] | 10 to 50 nM
CC(=O)Nc1cc(-c2cnc(C)c(NS(=O)(=O)c3cccc(F)c3F)c2)ccn1 [Compound I-377, N-(5-{[(2,3-difluorophenyl)sulfonyl]amino}-6-methyl-3,4′-bipyridin-2′-yl)acetamide] | 10 to 50 nM
Cc1nccc(Nc2cc(-c3cnc4c(c3)C(=O)N(Cc3ccccc3)CC4)ccn2)n1 [Compound I-378, 6-benzyl-3-[2-[(2-methylpyrimidin-4-yl)amino]-4-pyridyl]-7,8-dihydro-1,6-naphthyridin-5-one] | > 100 nM
Cc1nccc(Nc2cc(-c3cnc(C)c(OCCN(C)C)c3)ccn2)n1 [Compound I-379, 5-[2-(dimethylamino)ethoxy]-6-methyl-N-(2-methylpyrimidin-4-yl)-3,4′-bipyridin-2′-amine] | > 100 nM
CC(=O)Nc1cc(-c2cnc(C#N)c(N3CCCCC3C)c2)ccn1 (stereo not drawn) [Compound I-380, N-[6-cyano-5-(2-methylpiperidin-1-yl)-3,4′-bipyridin-2′-yl]acetamide] | > 100 nM
